Tests used:
[1] = target: Glutathione S-transferase omega-1 (Homo sapiens) (UniProt P78417); assay: Inhibition of human GSTO1-1 expressed in HEK293 cells by CDNB-GSH conjugation assay
[2] = target: T1, Glutathione S-transferase omega-1 (Homo sapiens, UniProt P78417); assay: Inhibition of GSTO1-1 (unknown origin) by 4-NPG substrate based assay
T1 sequence (P78417 whole entry): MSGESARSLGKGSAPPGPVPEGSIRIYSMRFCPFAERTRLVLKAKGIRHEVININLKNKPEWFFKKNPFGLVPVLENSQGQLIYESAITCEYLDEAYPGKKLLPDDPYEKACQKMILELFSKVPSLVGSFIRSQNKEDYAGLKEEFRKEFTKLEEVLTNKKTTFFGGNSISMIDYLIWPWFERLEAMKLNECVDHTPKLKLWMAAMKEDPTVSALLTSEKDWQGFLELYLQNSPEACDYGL

[3] = target: Glutathione S-transferase P (Homo sapiens, UniProt P09211); assay: Inhibition of human GSTP1-1
[4] = target: T1, Glutathione S-transferase omega-1; assay: Inhibition of human GSTO1-1 by MMA (V) reductase assay
[5] = target: T1, Glutathione S-transferase omega-1; assay: Inhibition of GSTO1-1 (unknown origin) by enzymatic assay
[6] = target: T1, Glutathione S-transferase omega-1; assay: Inhibition of GSTO1-1 (unknown origin) pre-incubated for 1 hr before GSH addition by CDNB-GSH conjugation assay

Sequence of Glutathione S-transferase P (P09211 whole entry): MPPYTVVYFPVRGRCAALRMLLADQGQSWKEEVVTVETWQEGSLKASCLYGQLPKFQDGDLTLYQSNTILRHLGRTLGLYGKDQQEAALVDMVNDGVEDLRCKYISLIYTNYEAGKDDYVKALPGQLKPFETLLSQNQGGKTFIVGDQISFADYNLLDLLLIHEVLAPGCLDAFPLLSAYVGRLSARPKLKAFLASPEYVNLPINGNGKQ

CC(=O)Oc1ccc2c(c1)Oc1cc(OC(C)=O)ccc1C21OC(=O)c2cc(CCl)ccc21
IC50 [1]: 0.0512 µM

O=C1C=CC(O)(c2cc(=O)c3c(O)cc(O)cc3o2)C=C1 [PROTOAPIGENONE]
IC50 [2]: 1.6 µM

Cc1c(C)c2c(c(C)c1O)CC[C@@](C)(CCC[C@H](C)CCC[C@H](C)CCCC(C)C)O2 [ALPHA-TOCOPHEROL]
IC50 [3]: 0.5 µM

C[C@H](CCC(=O)O)[C@H]1CC[C@H]2[C@@H]3CC[C@@H]4C[C@H](O)CC[C@]4(C)[C@H]3C[C@H](O)[C@]12C
IC50 [4]: 1020 µM

C=C(CC)C(=O)c1ccc(OCC(=O)O)c(Cl)c1Cl [ETHACRYNIC ACID]
IC50 [4]: 25 µM

O=[N+]([O-])c1ccc(Cl)c([N+](=O)[O-])c1 [DINITROCHLOROBENZENE]
IC50 [4]: 900 µM

Cc1c(C)c2c(c(C)c1OC(=O)CCC(=O)O)CC[C@@](C)(CCC[C@H](C)CCC[C@H](C)CCCC(C)C)O2 [(+)-ALPHA-TOCOPHERYL SUCCINATE]
IC50 [4]: 4 µM

CCN(CC)C(=O)SSC(=O)N(CC)CC
IC50 [5]: < 0.4 µM

CC(C)c1cc2c(c(O)c1O)[C@@]1(C(=O)O)CCCC(C)(C)[C@@H]1CC2 [CARNOSIC ACID]
IC50 [2]: 62 µM

CC(C)C[C@H](NC(=O)[C@H](CCc1ccccc1)NC(=O)CN1CCOCC1)C(=O)N[C@@H](Cc1ccccc1)C(=O)N[C@@H](CC(C)C)C(=O)[C@@]1(C)CO1 [CARFILZOMIB]
IC50 [6]: 0.15 µM
